# Test results taken from patent US20030162734A1, “Modulation of DENN-MADD expression and interactions for treating neurological disorders” (priority 2001, published 2003).
# Entries after “also recorded” stand apart in the source; their conditions may differ.
# How the values were obtained:
# [1] = system: JNK; conditions: at 10 μM; cited from earlier work
# [2] = system: NSC19 cells; assay: Annexin V FACS apoptosis assay, NSC19 cells overexpressing DENN or DENN mutants, Aβ(1-40) with or without SB203580; format: cell-based, mouse; conditions: 10 μM SB203580 with Aβ(1-40)
# Excerpt: In contrast to primary CNS cultures, NSC19 are more readily transfectable and highly responsive to apoptosis (Smirnova et al., 1998; Citron et al, 1997). Cells were maintained in high glucose Dulbecco's Modified Eagle's Medium (DMEM) (GIBCO-BRL/Life Technologies, Rockville, Md.) supplemented with 10% fetal bovine serum (FBS) and 1% streptomycin/penicillin. Neuro2A cells (CCL-131), C0S7 (CRL-1651) and human embryonic kidney 293 (CRL-1573) cells were acquired from ATCC. Murine neuroblastoma Neuro2A (N2A) were grown in MEM supplemented with 10% FBS, while COS7 and 293 were maintained in DMEM supplemented with 10% FBS. Cells were plated (5 ×10^5 cells/ml) in 35-mm dishes and transfected with 1 μg total DNA using Effectene or SuperFect (Qiagen) as described by the manufacturer. […]
# Cells were analyzed by fluorescence-activated cell sorting (FACS) analysis on a FACSTAR PLUS (Becton-Dickinson) and analyzed with Cell Quest software. […]
# (PI) for cell death or GFP and phycoerythrin (PE)-conjugated annexin V for early apoptosis. The percentage of cell death was quantified as those cells expressing GFP and either annexin V or 7-AAD staining relative to total GFP expressing cells. Experiments were performed in triplicate with 10,000 events counted. […]
# [3] = system: NSC19 cells; assay: FACS cell death assay (GFP and PI positive cells) after Aβ(1-40) exposure; format: cell-based, mouse; conditions: GFP-expressing NSC19 cultures, Aβ for 48 h
# Description: Lyophilized, HPLC purified β-amyloid, Aβ25-35, Aβ1-40 , Aβ1-42 and Aβ40-1 were obtained from either Sigma Chemical Co., U.S. Peptide (Fullerton, Calif.) or Bachem (Torrance, Calif.), respectively. Peptides were reconstituted in double-distilled H2O at 10 mM Aβ. To age the β-amyloid in vitro and produce aggregated, fibrillar Aβ, an aliquot of the Aβ stock solution was dissolved at the indicated concentration in culture medium and incubated at 37° C. for 3 to 5 days. Cells were incubated with the appropriate Aβ peptide concentration for the indicated times and examined for immunofluorescence or cell death assay.
# Cells were analyzed by fluorescence-activated cell sorting (FACS) analysis on a FACSTAR PLUS (Becton-Dickinson) and analyzed with Cell Quest software. FACS analysis for two color analysis used GFP and either 7-amino-actinomycin (7-AAD) or propidium iodide
# (§1) (PI) for cell death or GFP and phycoerythrin (PE)-conjugated annexin V for early apoptosis. The percentage of cell death was quantified as those cells expressing GFP and either annexin V or 7-AAD staining relative to total GFP expressing cells. Experiments were performed in triplicate with 10,000 events counted. TUNEL staining was performed according to manufacturer's instructions (Roche).
# Neurotoxicity induced by Aβ(1-40) exposure was further examined using clonal cells expressing GFP-fused mutant forms of DENN. […]
# [4] = system: DENN; assay: Western blot of endogenous DENN in stressed neuroblastoma cultures; format: cell-based, mouse; conditions: for DENN expression in cultures treated with oxidative stress factors: data not shown
# Description: (§2) A) NSC19 and N2A cells were exposed to 0.1% BSA (Control) or 20 μM fibrillar Aβ(1-40) for 48 h. Cell extracts (100 μg) were immunoblotted with DENN antibody and reprobed with actin antibody. DENN reactive bands appear at ˜200 kD and ˜140 kD. DENN protein expression is higher in NSC19 relative to N2A cells. Aβ exposure dramatically reduces DENN protein expression. Similar results were obtained in three independent experiments. B) Total RNA from Control and Aβ exposed N2A cultures was extracted and RT-PCR using either DENN or actin specific primers was performed. […] Results are representative of three independent experiments. C) Primary rat hippocampal neurons were exposed to 25 μM Aβ(1-42) for 24 h, fixed in 4% PFA and stained with antibodies specific for DENN, phospho-JNK (P-JNK) and counterstained with Hoechst 33342 for nuclei.
# NSC 19 cells were harvested after the appropriate treatments by scraping into cold PBS and centrifuging at 1500 ×g for 5 min at 4° C. Cells were then lysed in buffer A (20 mM Tris-Cl, pH 7.5, 1% Triton X-100, 0.5% NP-40, 0.1 M NaCl, 20 mM β-glycerophosphate, 2 mM EDTA, 2 mM sodium pyrophosphate, 10% glycerol, 10 μg/ml leupeptin and 2 mM phenylmethylsulfonyl fluoride) for 20 min on ice followed by four 5-second sonication bursts on ice. Lysates were centrifuged at 14,000 ×g for 10 min at 4° C. Protein concentrations were measured by the Bradford (1976) assay using bovine serum albumin (BSA) standards. Approximately 50 μg of cell lysates were mixed with 2Xsample buffer and boiled for 5 min. Samples were resolved by 10% SDS-polyacrylamide gel electrophoresis (PAGE), transferred to nitrocellulose membranes, blocked in 5% skim milk and 1% BSA in 1XTBS, and incubated overnight at 4° C. with primary antibody at indicated dilutions. Blots were then washed with TBS buffer containing 0.15% Tween 20 (washing buffer), incubated with a 1:1000 dilution of anti-mouse or anti-rabbit IgG-conjugated horseradish peroxidase for 1 h at room temperature, washed again and processed by ECL detection (Amersham). […]
# [5] = system: DENN; assay: RT-PCR of DENN RNA in Aβ-exposed N2A cultures; format: cell-based, murine; conditions: N2A cells
# Description: as §2
# Total RNA was purified using the RNeasy miniprep kit (Qiagen) and resuspended in 50 μt RNase free water. For each RT-PCR, 1 μg RNA was subjected to One-Step RT-PCR using Omniscript and Sensiscript Reverse transcriptases, HotStarTaq DNA polymerase and 0.5 μM of DENN primers: sense, SEQ ID NO: 6: 5′-[…]-3′ and antisense, SEQ ID NO: 1: 5′-[…]-3′, for 30 cycles with the following conditions: 94° C., 30 s; 60° C., 1 min; 72° C., 1 min. Human and murine actin prim were supplied by Clontech.
# RNA expression was compared in N2A cells (FIG. 6B).
# [6] = system: JNK3; conditions: cited from earlier work
# [7] = system: neuronal PC12 cells and sympathetic neurons; conditions: cited from earlier work
# [8] = system: JNK; assay: JNK immunoprecipitation in vitro kinase assay (GST-c-Jun substrate) from Aβ-exposed N2A clones; format: cell-based, murine; conditions: 1 μM CEP11004 with 25 μM Aβ(1-42), 24 h; N2A clones expressing GFP or DENN
# Description: For kinase assays, cells were exposed to 25 μM Aβ(1-40) in the absence or presence of 1 μM CEP11004 for the specified duration. Cell extracts were prepared, incubated with 5 μl JNK antibody for 4 h at 4° C. and precipitated with 60 μl 50% slurry protein A/G sepharose overnight at 4° C. Immunoprecipitates were washed, then incubated with 1 μg GST-cJun (1-79) and 50 μM ATP in 40 μl for 30 min at 30° C. Reactions were terminated with 40 μl Laemmli buffer, boiled for 4 min, centrifuged and 40 μl was loaded onto 10% SDS-PAGE, transferred to nitrocellulose and probed with phospho-c-Jun (Ser73) antibody.
# N2A clones expressing GFP or DENN were exposed to 25 μM Aβ(1-42) either in the absence or presence of 1 μM CEP11004. Previously, inhibitiori of Aβ-induced cell death in neuronal PC12 cells and sympathetic neurons required less than 300 nM CEP1347 (Troy et al., 2001). After 24 h Aβ exposure, JNK was immunoprecipitated from cell extracts and incubated with GST-c-Jun substrate and ATP in an in vitro kinase assay. The reactions were immunoblotted with antibody specific to phosphorylated c-Jun. […] Thus, reduction of cell death and JNK activity by JNK inhibitors in DENN overexpressing cell cultures supports DENN involvement in c-Jun activation and cellular apoptosis.
# [9] = system: mouse primary hippocampal neurons; assay: TUNEL cell death assay in primary hippocampal neurons; format: cell-based; conditions: for Aβ-induced cell death (TUNEL positive cells): CEP11004 with 25 μM Aβ(1-42), 24 h, Control-AS or DENN-AS treated hippocampal cultures
# Description: Primary mouse and rat hippocampal neurons were prepared from newborn C57B1/6 mouse or Sprague-Dawley rat pups. Briefly, hippocampi were dissected out, minced and digested with 100 U papain and 0.2 μg/ml DNaseI. Following digestion, cells were 'triturated with fire-polished Pasteur pipets and centrifuged in media containing 20 μg/ml BSA. Cells were plated on collagen-coated or poly-lysine coated plates at a density of 3×10^6 cells/ml in Neurobasal medium with B27 supplement and antibiotics (Life Technologies, Gaithersburg, Md.). One day after plating, cells were exposed to 5 μM cytosine arabinoside for 4 d to kill dividing cells. Experiments were performed after 6-8 days in vitro (DIV).
# as §1
# To assess cell death in neuronal cultures exposed to anti-sense oligonucleotides and Aβ, TUNEL staining was performed (FIG. 9B). […] However, due to the increased TUNEL staining with DENN-AS treated cultures, the overall cell death with Aβ was 10-15% greater in these cultures (FIG. 9C). DENN-AS treatment alone increased cell death by 20%. […] Furthermore, the level of cell death observed with Aβ was abrogated by exposing neuronal cultures to 1 βM CEP11004.
compound,measurement,setting,value
"C[S+]([O-])c1ccc(-c2nc(-c3ccc(F)cc3)c(-c3ccncc3)[nH]2)cc1 (centres unmarked) [SB203580, 4-(4-fluorophenyl)-2-(4-methylsulfinylphenyl)-5-(4-pyridyl)-1H-imidazole]",JNK activity inhibition,[1],JNK activity is also inhibited
same,cell death/apoptosis in DENN-JBD transfected cells with Aβ/SB203580 co-treatment,"[2]; NSC19 DENN-JBD transfectants, p<0.05",reproducible increase in cell death; also recorded: slight increase in apoptosis
same,apoptotic response (GFP and annexin V positive cells) to Aβ in cells overexpressing DENN or DENN-CT,"[2]; NSC19 cells overexpressing DENN or DENN-CT, p<0.01",significantly attenuated apoptotic response; also recorded: decreased
"Aβ(1-40): β-amyloid peptide 1-40, aged in vitro to aggregated, fibrillar form",increase in cell death after Aβ exposure,[3],five-fold
Aβ: β-amyloid peptide; per FIG. 6 legend 20 μM fibrillar Aβ(1-40),reduction of endogenous DENN protein,"[4]; NSC19 and N2A cells, 20 μM fibrillar Aβ(1-40), 48 h",approximately 3 fold
same,reduction in DENN RNA expression (RT-PCR),[5],four-fold
N[C@@H](CCC(=O)O)C(=O)O [glutamate],DENN expression in cultures treated with oxidative stress factors,[4],reduction in DENN expression
CCSCc1ccc2c(c1)c1c3c(c4c5cc(CSCC)ccc5n5c4c1n2[C@H]1C[C@](O)(C(=O)OC)[C@]5(C)O1)CNC3=O [CEP1347],JNK3 activation,[6],inhibit JNK3 activation
same,concentration required for inhibition of Aβ-induced cell death,[7],less than 300 nM
OO [hydrogen peroxide],DENN expression in cultures treated with oxidative stress factors,[4],reduction in DENN expression
CCSCc1ccc2c(c1)c1c3c(c4c5cc(CSCC)ccc5n5c4c1n2C1C[C@](O)(C(=O)OC)[C@]5(C)O1)CNC3=O [CEP11004],JNK activity (c-Jun phosphorylation),[8],four-fold; also recorded: inhibits Aβ-induced c-Jun phosphorylation
same,effect on DENN AS-induced cell death,"[9]; CEP11004, DENN-AS treated hippocampal cultures",little effect
same,Aβ-induced cell death (TUNEL positive cells),[9],abrogated
same,Aβ-induced cell death (TUNEL positive cells),[9]; listed as CEP1004,inhibits effect of Aβ-induced cell death
